Values after ≈ are worked out from the molar mass of the structure shown. Square brackets hold non-standard residues; d marks the D form. Peptide text beside a SMILES is read from it. * marks the point of attachment. Palmitoyl = CCCCCCCCCCCCCCCC(=O)*; Dab = NCC[C@H](N)C(=O)O
Columns and labels:
[1] = system: 46BR.1N human skin fibroblasts cell line; format: cell-based
Protocol: (§1) Cytotoxicity was determined towards immortalized human HaCaT keratinocytes (DKFZ, Heidelberg, Germany), transformed human fibroblast cell line 46BR.1N (ECACC), as well as the human melanoma (A375), human lung cancer (A549), human colon cancer (HCT-116), human colon adenocarcinoma (HT-29), and human prostate cancer (LNCaP) cell lines. Keratinocytes and fibroblast cell lines were maintained in a humidified atmosphere with 5% CO2 at 37 °C in a Dulbecco’s modified Eagle’s medium (DMEM) (Sigma-Aldrich, Steinheim, Germany), which contained 4500 mg/L of glucose, 584 mg/L of L-glutamine, sodium pyruvate, and sodium bicarbonate. Additionally, the medium was supplemented with 10% of fetal bovine serum (FBS) (Sigma-Aldrich, Steinheim, Germany), 100 U/mL of penicillin, and 100 µg/mL of streptomycin (Sigma-Aldrich, Steinheim, Germany). The cells were grown in culture dishes (BD, Franklin Lakes, NJ, USA) and the medium was changed every 2 days. Afterwards, the fibroblasts and keratinocytes were harvested using a standard trypsin-EDTA solution, centrifuged, suspended in a medium supplemented with 10% FBS and seeded at a density of 5500–6000 cells per well into 96-well plates. After 24 h, the medium was exchanged with a serum- and antibiotic-free DMEM. The next day, serially diluted solutions of the lipopeptides prepared in a fresh FBS- and antibiotic-free medium were added to the wells. The potential cytotoxic effect of the compounds was analyzed over the concentration range of 1–25 µg/mL. After addition of the lipopeptides, cells were incubated for the next 24 h. At the end of the experiment, the cells were treated with 20 µL of MTT (5 mg/mL in PBS). After 3 h at 37 °C under 5% CO2, the medium was discarded and replaced by 6 mM HCl in isopropanol. As soon as the purple crystals of formazan were completely solubilized, absorbance was read at 570 nm with a plate reader. The optical density of the wells without the tested compounds were regarded as the positive control. The MTT assay was performed in triplicate for each cell line.
(§2) Determination of the half-maximum inhibitory concentrations (IC50) was done using GraphPad Prism 5 software (San Diego, CA, USA) based on the dose-response curves. The logarithm of the different concentrations of compounds was plotted against the percentage of inhibition in cell viability as compared with control probes, treated as 100%.

[2] = system: HaCaT human keratinocyte cell line; format: cell-based
Protocol: as §1, §2

[3] = system: A375 human malignant melanoma cell line; format: cell-based
Protocol: (§3) In the case of evaluation of cytotoxicity towards different types of the cancer cell lines (A375, A549, HCT-116, HT-29, and LNCaP, respective cells were seeded in 96-well plates (4500 cell/well) in the RPMI-1640 medium supplemented with 5% FBS without antibiotics and incubated for 24 h before stimulation with the lipopeptides. The next day, the cells were exposed to the effect of the serially diluted compounds added at concentrations ranging from 1 to 25 µg/mL for a period of 48 h. After the treatment, cells viability was evaluated by means of MTT assays, according to standard protocol, as just described. The experiment was repeated three times for each cell line.
as §2

[4] = system: HT-29 human colorectal adenocarcinoma; format: cell-based
Protocol: as §3, §2

[5] = system: A549 human epithelial lung carcinoma; format: cell-based
Protocol: as §3, §2

[6] = system: HCT-116 human colorectal carcinoma; format: cell-based
Protocol: as §3, §2

[7] = system: LNCaP human prostate carcinoma; format: cell-based
Protocol: as §3, §2

[8] = system: MCF-7 breast cancer cell line; format: cell-based, human
[9] = Surface tension measurements (critical aggregation concentration); format: physicochemical; settings: Wilhelmy plate method, aqueous solution, 298 K; for Critical aggregation concentration (CAC): surface tension
Protocol: The surface tension was determined in aqueous solution at 298 K by the Wilhelmy plate method using a Force Tensiometer K100 (Krüss, Hamburg, Germany). The results were presented as a function of decimal logarithm of lipopeptide concentration. The critical aggregation concentration (CAC) was defined as the intersection of two straight lines best fitting to data points before and after reaching the CAC point.

[10] = Analytical RP-HPLC retention time as measure of hydrophobicity; format: physicochemical; settings: Jupiter 4 µ Proteo 90 Å 250 x 4.60 mm, linear gradient 15-90% B in A in 30 min, 1 ml/min, A 0.1% aqueous TFA, B 80% acetonitrile in water with 0.1% TFA
Protocol: The lipopeptides were purified in a Waters RP-HPLC preparative system (Jupiter 4 µ Proteo column, 90 Å, 250 × 10 mm) with the linear gradient of solution B in A from 30% to 60% (A, 0.1% solution of TFA in water and B, 80% solution of ACN in water containing 0.1% of TFA) in 40 min with a flow rate of 5 mL/min. Final purity of the analogues (at least 97%) was determined using an analytical RP-HPLC Shimadzu system (Jupiter 4 µ Proteo column, 90 Å, 250 × 4.60 mm) with the linear gradient of solution B in A from 15% to 90% in 30 min with a flow rate of 1 mL/min. Identity of lipopeptides was confirmed by MALDI-TOF mass spectrometry. Analytical data of the synthesized analogues are presented in Table S1 (Supplementary Materials). ^a linear gradient 15-90% of B in A for 30 min, flow rate 1 ml/min, RP-HPLC Shimadzu system, column: Jupiter 4 µ Proteo, 90 Å, 250 x 4.60 mm; A – 0.1% aqueous TFA solution, B – 80% solution of acetonitrile in water with 0.1% of TFA; ^b molecular masses were determined using MALDI-TOF mass spectrometer.

[11] = intersection of two fitted lines

| γCAC, surface tension at the CAC point [9] [mN/m] | Critical aggregation concentration (CAC) [9] [mg/mL] | Critical aggregation concentration (CAC) [9, 11] [mM] | SMILES | IC50, 46BR.1N (24h) [1] [µg/mL] | IC50, HaCaT (24h) [2] [µg/mL] | IC50, A375 (48h) [3] [µg/mL] | IC50, HT-29 (48h) [4] [µg/mL] | IC50, A549 (48h) [5] [µg/mL] | IC50, HCT-116 (48h) [6] [µg/mL] | IC50, LNCaP (48h) [7] [µg/mL] | IC50, MCF-7 (48h) [8] [µg/mL] | Retention time (used as measure of hydrophobicity) [10] [min] |
| --- | --- | --- | --- | --- | --- | --- | --- | --- | --- | --- | --- | --- |
| 39.8 | 4.0 | 6.6 | CCCCCCCCCCCCCCCC(=O)NCC[C@H](NC(=O)[C@@H](N)CCCCN)C(=O)N[C@@H](CCCCN)C(N)=O [K(DabC16)K-NH2] (H-Lys-[Dab](Palmitoyl)-Lys-NH2) | 9.76 ± 0.70 (≈ 15.9 µM) | 7.96 ± 2.49 (≈ 13 µM) | 11.99 ± 0.38 (≈ 19.6 µM) | 21.56 ± 0.22 (≈ 35.2 µM) | >25 | 16.79 ± 0.34 (≈ 27.4 µM) | 14.3 ± 0.45 (≈ 23.4 µM) | 16.28 ± 1.02 (≈ 26.6 µM) | 23.974 |
| 43.0 | 3.5 | 5.4 | CCCCCCCCCCCCCCCC(=O)NCCCC[C@H](NC(=O)[C@@H](N)CCCCN)C(=O)N[C@@H](CCCCN)C(N)=O [K(KC16)K-NH2] | 9.36 ± 2.31 (≈ 14.6 µM) | 9.08 ± 2.28 (≈ 14.2 µM) | 20.34 ± 1.47 (≈ 31.8 µM) | 21.97 ± 1.10 (≈ 34.3 µM) | >25 | 20.72 ± 0.62 (≈ 32.4 µM) | >25 | 22.71 ± 0.79 (≈ 35.5 µM) | 24.731 |
|  |  |  | CCCCCCCCCCCCCCCC(=O)NCCCC[C@H](NC(=O)[C@H](CCCCN)NC(=O)[C@@H](N)CCCCN)C(=O)N[C@@H](CCCCN)C(=O)N[C@@H](CCCCN)C(N)=O [KK(KC16)KK-NH2] (H-KKK(Palmitoyl)KK-NH2) | 7.56 ± 1.31 (≈ 8.43 µM) | 11.92 ± 1.57 (≈ 13.3 µM) | >25 | 18.98 ± 0.38 (≈ 21.2 µM) | >25 | 15.98 ± 0.16 (≈ 17.8 µM) | >25 | >25 | 21.745 |

| SMILES | γCAC, surface tension at the CAC point [9] [mN/m] | Critical aggregation concentration (CAC) [9] [mg/mL] | Critical aggregation concentration (CAC) [9, 11] [mM] | IC50, 46BR.1N (24h) [1] [µg/mL] | IC50, HaCaT (24h) [2] [µg/mL] | IC50, A375 (48h) [3] [µg/mL] | IC50, HT-29 (48h) [4] [µg/mL] | IC50, A549 (48h) [5] [µg/mL] | IC50, HCT-116 (48h) [6] [µg/mL] | IC50, LNCaP (48h) [7] [µg/mL] | IC50, MCF-7 (48h) [8] [µg/mL] | Retention time (used as measure of hydrophobicity) [10] [min] |
| --- | --- | --- | --- | --- | --- | --- | --- | --- | --- | --- | --- | --- |
| CCCCCCCCCCCCCCCC(=O)NCCC[C@H](NC(=O)[C@@H](N)CCCCN)C(=O)N[C@@H](CCCCN)C(N)=O [K(OC16)K-NH2] | 39.2 | 3.7 | 5.9 | 9.02 ± 0.69 (≈ 14.4 µM) | 6.25 ± 3.08 (≈ 9.98 µM) | 21.60 ± 0.76 (≈ 34.5 µM) | 20.51 ± 0.41 (≈ 32.8 µM) | >25 | 18.07 ± 0.54 (≈ 28.9 µM) | >25 | 15.47 ± 1.04 (≈ 24.7 µM) | 24.204 |

Reference: article PMC7728077, “Double-Headed Cationic Lipopeptides: An Emerging Class of Antimicrobials” (International Journal of Molecular Sciences, 2020)
